Columns and labels:
Assay in all cases: PubChem AID 651964; call rule not given here
GCLM = settings: mouse embryonic fibroblasts, qRT-PCR mRNA fold induction, at 10 µM (top of the series)
BiP = settings: mouse embryonic fibroblasts, qRT-PCR mRNA fold induction, at 10 µM (top of the series)
Hsp70 = settings: mouse embryonic fibroblasts, qRT-PCR mRNA fold induction, at 10 µM (top of the series)
[1] = target: DNA damage-inducible transcript 3 protein (Mus musculus) (UniProt P35639); settings: mouse embryonic fibroblasts, qRT-PCR mRNA fold induction; CHOP; at 10 µM (top of the series)
HO-1 = settings: mouse embryonic fibroblasts, qRT-PCR mRNA fold induction, at 10 µM (top of the series)

Measured: fold induction of mRNA

Chain of DNA damage-inducible transcript 3 protein (Mus musculus) (P35639 whole entry, looked up): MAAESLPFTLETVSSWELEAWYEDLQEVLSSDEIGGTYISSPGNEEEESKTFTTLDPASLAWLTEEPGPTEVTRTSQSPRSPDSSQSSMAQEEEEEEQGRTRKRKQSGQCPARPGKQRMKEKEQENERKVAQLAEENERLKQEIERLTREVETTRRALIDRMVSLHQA

COc1ccc(/C=C/C=C2C(=O)NC(=O)NC2=O)cc1
active: GCLM 1.6 | BiP 2.18 | Hsp70 18.9 | [1] 2.08 | HO-1 5.54
